Data: patent US7767671B2, “3-Quinolinecarbonitrile protein kinase inhibitors” (Wyeth, priority 2004, dated 2010)

Key:
[1] = molecular target: T1, Raf and/or Mek kinase (human c-Raf, GST-MEK1) (Homo sapiens, UniProt P04049+Q02750); assay: Raf/Mek kinase cascade assay; type: biochemical; conditions: c-Raf dependent activation of GST-MEK and GST-MAPK, phospho-MAPK ELISA; (a)/(b)/(c) = average of two/three/four runs
T1 construct: Sf9 insect cell lysate containing full length 6his-tagged recombinant human c-Raf; 6His; host or cells: Sf9 insect cells (c-Raf, used as lysate); E. coli (MEK1-GST, GST-MAPK)
Description: Raf/Mek Kinase Cascade Assay Procedure
(Specific Activity: ˜200 U/ml). Human Non-active Mek-1-GST and human GST-MAP kinase (recombinant proteins produced in E. coli).
Stock Solutions Raf/Mek Cascade Assay:
• 1. Assay Dilution Buffer (ADB): 20 mM MOPS, pH 7.2, 25 mM β-glycerol phosphate, 5 mM EGTA, 1 mM sodium orthovanadate, 1 mM dithiothreitol; • 2. Magnesium/ATP Cocktail: 500 μM cold ATP and 75 mM magnesium chloride in ADB; • 3. Active Kinase: Human Active c-Raf: Use at 0.4 U per assay point; • 4. Non-active GST-MEK1: Use at 0.1 μg per assay point; and • 5. Non-active GST-p42 MAP Kinase: Use at 1.0 μg per assay point. Stock Solutions ELISA: • 1. TBST-Tris (50 mM, pH 7.5), NaCl (150 mM), Tween-20 (0.05%); • 2. Superblock (Pierce); • 3. Anti-GST Ab (Pharmacia); • 4. Anti-Phospho MAPK (Sigma); and • 5. Anti-Mouse Ab/Europium conjugate (Wallac). Assay Procedure: First Stage: c-Raf Dependent Activation of GST-MEK and GST-MAPK • 1. Add […] of ADB per assay (i.e. per well of a 96 well plate); • 2. Add 10 ml of 0.5 mM cold ATP and 75 mM magnesium chloride in ADB; • 3. Add 2 ml of c-Raf (0.4 U/assay), in conjunction with 1.6 ml non-active MEK1 (0.4 […]/assay); • 4. Add 4 ml of non-active GST-p42 MAP Kinase (1.0 mg/assay); • 5. Incubate for 60 minutes at 30° C. in a shaking incubator; • 6. Transfer this mixture to an anti-GST Ab coated 96 well plate (Nunc Immunosorb plates coated o/n with a-GST, then blocked with Pierce Superblock); • 7. Incubate for 60 minutes at 30° C. in a shaking incubator; • 8. Wash 3× with TBST, add Anti-Phospho MAPK (Sigma) (1:3000); • 9. Incubate for 60 minutes at 30° C. in a shaking incubator; • 10. Wash 3× with TBST, add Anti-Mouse Ab/Europium conjugate (Wallac) (1:500); • 11. Incubate for 60 minutes at 30° C. in a shaking incubator; • 12. Wash 3× with TBST, Read plates in Wallac Victor model Plate Reader; and • 13. Collect data analyze in Excel for single point and IC50 determinations.
Single point assay—% inhibition at […] (% Inhibition=1−cpd·treated sample/untreated control). IC50 determinations—done on compounds from single point assays with >80% inhibition. Typically, the Raf/Mek assay is run at compound concentrations from 10 μM to 1 nM in half log dilutions. (% inhibition is determined for each compound concentration). The results obtained measure Raf and/or Mek kinase inhibition, and for representative compounds of this invention are listed in Table 1.

[2] = tested on: LoVo; assay: Cell based screen for inhibitors of Raf and/or Mek kinase (SRB), LoVo; design: species or system human; conditions: Homo sapiens, 96 h, LoVo cells, four days incubation, (a)/(b)/(c) = average of two/three/five runs
Description: (§1) Cell Based Screen for Inhibitors of Raf and/or Mek Kinase. Materials
Cell Lines: Human adenocarcinoma cell line LoVo, known to be growth inhibited by low nM concentrations of a reference standard inhibitor of Ras and human adenocarcinoma cell line CaCo-2, known to be growth resistant to the same reference compound.
Cell Media: RPMI 1640 with 10% Fetal Bovine Serum supplemented with L-glutamine and Penicillin/Streptomycin.
(§2) Cells are plated at 2000 cells per well for cell line LoVo and 1500 cells for cell line CaCo-2 in 96 well plates. Cells are plated in media (200 μl) and allowed to adhere overnight at 37° C. At 24 hours post plating, compounds are added directly at a volume of 0.5 μl. For the qualitative screen (compounds screened at 25 μM) compound is added directly to cells. For the quantitative screen, compound is first diluted in DMSO to generate concentrations of compound or reference standard of: 1, 5, 10 and 25 μM. It is advisable to make the dilutions in an identical 96 well plate so that compounds can be added using a multichannel micropipettor set at 0.5 μl. The cells are then incubated for four days after which the media is removed using a 12 well manifold by first tipping the plate forward at a 45 degree angle and then inserting the manifold in an upright orientation to prevent the tips of the manifold from disturbing cells at the bottom of the plate. 200 μl of normal saline is then added to each well using an 8 well multichannel pipettor, followed by the careful addition of 50 μl of 50% TCA. The plates are then incubated for 2 hours at 4° C., after which the supernatant is removed using the same technique as above and the plated cells are washed twice with 200 μl water. The plates are then air dried and 50 μl of SRB stock solution is carefully added so that the entire bottom of each well is covered. This again can be done using an 8 well multichannel pipettor. The SRB is incubated with fixed cells for 15 minutes at room temperature after which the SRB is removed with the manifold as described above and the plates washed twice with 350 μl of 1% acetic acid per well each time. The plates are then air dried after which the bound SRB is released from protein by the addition of 200 μl of Tris base. Resolubilizing the SRB is aided by placing the plates on a rotator for 15-30 minutes. The absorbance of each well is determined at 550 or 562 nm using a microtiter plate reader.
(§3) Each compound or dilution thereof is performed in triplicate. Outliers are identified by visual inspection of the data. Each plate should have a “0” control (vehicle only).
(§4) Quantitative Assay: A standard curve is constructed by plotting the concentration of compound against the average absorbance calculated at that concentration. A curve is plotted and the concentration at which the curve passes through the 50% the absorbance mark seen in the “0” control well is the IC50 calculated for that compound. Multiple entries for a given compound indicate that it is tested multiple times.

[3] = molecular target: T2, p60c-src (Homo sapiens, UniProt P12931); assay: Src kinase test procedure (ELISA); type: biochemical; conditions: cdc2 substrate peptide, (a) = average of two runs
T2 construct: purchased Upstate Biotechnologies
Description: Src Kinase Test Procedure
Inhibitors of p60^c-src (partially purified preparation purchased from Upstate Biotechnologies) tyrosine kinase activity are analyzed in an Elisa format. The Boehringer Mannheim Tyrosine Kinase Assay Kit (Catalog number 1-534505) with a cdc2 substrate peptide containing Tyr15 is used for the assay. HRP-conjugated anti-phosphotyrosine is used to detect phosphorylated peptide via a color reaction. Conditions recommended by the manufacturer are employed.
Reaction conditions: Five microliter aliquots of each compound prepared fresh at the time of the assay are added as a solution in 10 mM HEPES pH 7.5, 10% DMSO to the reaction well. Thirty-five microliters of reaction mix containing Src, buffer and peptide/bovine serum albumin mix are added to the compound wells and incubated at 30° C. for 10 minutes (reaction buffer: 50 mM Tris HCl pH 7.5, 10 mM MgCl2, 0.1 mM EGTA, 0.5 mM Na3VO4). The reaction is started by addition of 10 microliters of ATP, incubated at 30° C. for 1 hour, and stopped by addition of 20 microliters of 0.5M EDTA. The reaction mixture with the phosphorylated peptide is then transferred to a streptavidin-coated microtiter plate (provided in the kit) and allowed to bind for 20 minutes. Unbound peptide and reaction mixture is decanted and the plate is washed with PBS six times. Horseradish peroxidase-conjugated phosphotyrosine antibody supplied in the kit is incubated with the plate for one hour, then decanted. The plate is again ished with PBS six times. Substrate (provided in the kit) is added and absorbance at 405 nm is measured.
Activity is determined as % inhibition as calculated by the formula: (1−Abs/Abs(max))×100=% inhibition. Where multiple concentrations of the test agent are used, an IC50 (concentration which gives 50% inhibition) could be determined.

[4] = tested on: BxPC3; assay: Cell based screen for inhibitors of Raf and/or Mek kinase (SRB), BxPC3; conditions: Homo sapiens, BXPC-3, BxPC3 cells, (a)/(b) = average of two/three runs
Description: [The procedure below names another cell line; the source lists this cell line under the same test.] as §1, §2, §3, §4

[5] = tested on: Rat2 fibroblasts transformed with v-Src/Hu c-Src fusion gene; assay: Anchorage independent Src-transformed fibroblast proliferation; type: cell-based; conditions: Rattus norvegicus, 120 h, suspension growth, MTS on Day 5, read-out: Src TF prolif IC50
Description: Anchorage Independent Src-transformed Fibroblast Proliferation Test Procedure: Rat2 fibroblasts stably transformed with a plasmid containing a CMV promotor controlled v-Src/Hu c-Src fusion gene in which the catalytic domain of human c-Src is inserted in place of the v-Src catalytic domain in the v-Src gene are used for the measurement of src dependent suspension growth. Ultra-low cluster plates (Costar #3474) are seeded with 10,000 cells per well on Day 1.

[6] = tested on: HT-29 cells; assay: HT-29 cell proliferation on plastic (MTS); type: cell-based; conditions: Homo sapiens; HT-29 cells on plastic, MTS on day five; read-out: HT-29 prolif IC50
Description: Cell Proliferation Test Procedure for Inhibitors of Src Kinase
HT-29 cells: Compound effectiveness at inhibiting cell proliferation on plastic is performed in a 96-well format by plating 5000 cells per well in appropriate medium on day one, followed by compound addition on day 2 in serial two-fold dilutions. On day five, compound is washed away and medium containing MTS reagent (Promega) is added. Relative cell number is determined by reading the absorbance at 490 nm of a dye produced by an NAD-dependent cellular enzymatic reaction.

T1 sequence (P04049 whole entry): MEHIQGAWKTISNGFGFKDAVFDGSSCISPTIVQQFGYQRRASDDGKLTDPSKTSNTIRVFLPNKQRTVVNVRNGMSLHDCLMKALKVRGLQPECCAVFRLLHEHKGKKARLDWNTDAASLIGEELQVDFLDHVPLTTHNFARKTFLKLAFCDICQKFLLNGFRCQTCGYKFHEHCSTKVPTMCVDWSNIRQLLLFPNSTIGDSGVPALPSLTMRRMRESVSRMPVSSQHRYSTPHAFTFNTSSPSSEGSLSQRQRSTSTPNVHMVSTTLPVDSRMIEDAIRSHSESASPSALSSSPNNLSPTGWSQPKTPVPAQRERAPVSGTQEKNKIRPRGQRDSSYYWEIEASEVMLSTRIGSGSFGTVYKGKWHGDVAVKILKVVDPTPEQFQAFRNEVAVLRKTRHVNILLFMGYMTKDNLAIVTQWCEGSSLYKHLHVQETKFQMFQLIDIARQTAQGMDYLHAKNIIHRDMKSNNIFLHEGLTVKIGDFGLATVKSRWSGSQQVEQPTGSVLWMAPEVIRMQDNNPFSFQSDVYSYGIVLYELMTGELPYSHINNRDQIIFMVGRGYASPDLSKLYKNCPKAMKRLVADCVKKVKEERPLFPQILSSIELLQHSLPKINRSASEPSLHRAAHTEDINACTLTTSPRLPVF
T1 sequence (Q02750 whole entry): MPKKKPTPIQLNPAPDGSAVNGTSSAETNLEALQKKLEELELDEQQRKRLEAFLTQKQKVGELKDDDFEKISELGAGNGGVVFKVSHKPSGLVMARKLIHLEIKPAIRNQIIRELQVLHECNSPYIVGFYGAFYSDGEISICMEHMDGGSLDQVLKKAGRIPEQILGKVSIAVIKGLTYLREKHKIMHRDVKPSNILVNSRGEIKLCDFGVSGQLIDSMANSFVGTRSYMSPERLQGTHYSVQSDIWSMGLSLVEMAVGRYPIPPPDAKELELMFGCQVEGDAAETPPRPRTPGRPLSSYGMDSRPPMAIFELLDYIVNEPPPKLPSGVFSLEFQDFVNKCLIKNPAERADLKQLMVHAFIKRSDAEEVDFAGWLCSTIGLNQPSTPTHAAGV
T2 sequence (P12931 whole entry): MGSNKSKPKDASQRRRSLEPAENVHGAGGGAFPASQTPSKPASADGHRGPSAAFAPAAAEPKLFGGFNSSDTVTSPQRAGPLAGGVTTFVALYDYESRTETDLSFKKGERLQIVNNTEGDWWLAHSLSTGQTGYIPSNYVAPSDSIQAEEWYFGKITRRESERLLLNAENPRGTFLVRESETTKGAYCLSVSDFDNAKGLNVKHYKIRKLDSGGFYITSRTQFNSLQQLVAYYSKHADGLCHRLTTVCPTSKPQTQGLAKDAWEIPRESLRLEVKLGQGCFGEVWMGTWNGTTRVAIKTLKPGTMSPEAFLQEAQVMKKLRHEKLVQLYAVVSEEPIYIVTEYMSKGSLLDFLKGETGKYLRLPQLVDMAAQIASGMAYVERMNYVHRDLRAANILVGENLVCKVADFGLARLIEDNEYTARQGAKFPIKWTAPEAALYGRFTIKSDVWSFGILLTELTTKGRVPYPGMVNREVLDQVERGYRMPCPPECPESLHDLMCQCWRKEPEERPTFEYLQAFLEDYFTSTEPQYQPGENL

Row | SMILES | IC50 [1] | IC50 [2] | IC50 [3] | IC50 [4] | melting point | IC50 [5] | IC50 [6]
1 | COc1cc2c(Nc3ccc(Sc4nccn4C)c(Cl)c3)c(C#N)cnc2cc1N1CCC(N2CCCC2)CC1 [Example 11, 4-({3-chloro-4-[(1-methyl-1H-imidazole-2-yl)thio]phenyl}amino)-6-methoxy-7-(4-pyrrolidin-1-ylpiperidin-1-yl)quinoline-3-carbonitrile] | 114 nM | 29 nM | 281 nM | 42 nM | 225 to 229 °C |  | 
2 | COc1cc2c(Nc3ccc(Sc4nccn4C)c(Cl)c3)c(C#N)cnc2cc1N1CCC(N2CCN(C)CC2)CC1 [Example 20, 4-({3-Chloro-4-[(1-methyl-1H-imidazole-2-yl)thio]phenyl}amino)-6-methoxy-7-[4-(4-methylpiperazin-1-yl)piperidin-1-yl]quinoline-3-carbonitrile] | 293 nM | 22 nM |  | 38 nM | 235 to 237 °C |  | 
3 | CC(=O)N(C(C)=O)c1cc2c(Nc3ccc(Sc4nccn4C)c(Cl)c3)c(C#N)cnc2cc1N1CCC(N2CCCC2)CC1 [Example 28, N-Acetyl-N-[4-[3-chloro-4-(1-methyl-1H-imidazole-2-ylsulfanyl)-phenylamino]-3-cyano-7-(4-pyrrolidin-1-yl-piperidin-1-yl)quinolin-6-yl]acetamide] | 2390 nM | 14 nM |  | 8 nM | 245 to 247 °C |  | 
4 | CC(=O)Nc1cc2c(Nc3ccc(Sc4nccn4C)c(Cl)c3)c(C#N)cnc2cc1N1CCC(N2CCCC2)CC1 [Example 29, N-[4-({3-Chloro-4-[(1-methyl-1H-imidazole-2-yl)thio]phenyl}amino)-3-cyano-7-(4-pyrrolidin-1-ylpiperidin-1-yl)quinolin-6-yl]acetamide] | 1640 nM | 4 nM |  | 8 nM | 243 to 255 °C |  | 
5 | CNc1cc2c(Nc3ccc(Sc4nccn4C)c(Cl)c3)c(C#N)cnc2cc1N1CCC(N2CCCC2)CC1 [Example 30, 4-({3-Chloro-4-[(1-methyl-1H-imidazole-2-yl)thio]phenyl}amino)-6-(methylamino)-7-(4-pyrrolidin-1-ylpiperidin-1-yl)quinoline-3-carbonitrile] | 220 nM | 14 nM |  | 30 nM | 242 to 250 °C |  | 
6 | COc1cc(Nc2c(C#N)cnc3cc(N4CCC(N5CCCC5)CC4)c(OC)cc23)c(Cl)cc1Cl [Example 31, 4-[(2,4-dichloro-5-methoxyphenyl)amino]-6-methoxy-7-(4-pyrrolidin-1-ylpiperidin-1-yl)quinoline-3-carbonitrile] |  |  |  |  | 225 to 227 °C | 2400 nM | 
7 | COc1cc2c(Nc3ccc(Sc4nccn4C)c(Cl)c3)c(C#N)cnc2cc1OCCCN1CCC(N2CCCC2)CC1 [Example 33, 4-{3-Chloro-4-[(1-methyl-1H-imidazole-2-yl)sulfanyl]anilino}-6-methoxy-7-{3-[4-(1-pyrrolidinyl)-1-piperidinyl]propoxy}-3-quinolinecarbonitrile] | 3 nM | 47 nM |  | 49 nM | 196 to 198 °C |  | 
8 | COc1cc(Nc2c(C#N)cnc3cc(OCCCN4CCC(N5CCCCC5)CC4)c(OC)cc23)c(Cl)cc1Cl [Example 35, 7-(3-[1,4′-Bipiperidin]-1′-ylpropoxy)-4-[(2,4-dichloro-5-methoxyphenyl)amino]-6-methoxy-3-quinolinecarbonitrile] |  |  | 1 nM |  | 130 to 132 °C | 140 nM | 2700 nM
